Like-named read-outs stand apart in the source and are kept apart here.
Columns and labels:
[1] = system: Klebsiella Pneumonia (ATCC 13883); experiment: Bacterial proliferation assay, K. pneumoniae; type: cell-based
From the text: (§1) Bacterial Strains: Enterococcus faecium—(Orla-Jensen) Schleifer and Kilpper-Balz strain NCTC 7171 (ATCC 19434); Drug sensitive Staphylococcus aureus—Rosenbranch strain Seattle 1945 (ATCC 25923); Methicillin resistant S. aureus (MRSA)—Rosenbach strain HPV107 (ATCC BAA-44); Klebsiella Pneumonia—(Schroeter) Trevisan strain NCTC 9633 (ATCC 13883); Acinetobacter baumannii—Bouvet and Grimont strain 2208 (ATCC 19606); Pseudomonas aeruginosa—(Schroeter) Migula strain NCTC 10332 (ATCC 10145); Enterobacter cloacae—E. cloacae, subsp. cloacae (Jordan) Hormaeche and Edwards strain CDC 442-68 (ATCC 13047).
(§2) Growth Media: All bacteria were grown in Brain Heart Infusion (BHI) broth/agar (Becton, Dickinson and Company). All liquid cultures were grown in BHI media supplemented with 25 mg/L Ca^2+ and 12.5 mg/L Mg^2+ to mimic free physiological concentrations of these cations. A 10 mg/mL Ca^2+ stock solution was prepared by dissolving 3.68 g of CaCl2.2H2O in 100 mL of deionized water, and a 10 mg/mL Mg^2+ stock solution was prepared by dissolving 8.36 g of MgCl2.6H2O in 100 mL deionized water. Both stock solutions were filter-sterilized using 0.2 μm pore size cellulose-acetate filters. 2.5 mL of the sterile 10 mg/mL Ca^2+ stock and 1.25 mL of the sterile 10 mg/mL Mg^2+ stock solutions were added per 1 L of autoclaved BHI medium to obtain 25 mg/L Ca^2+ and 12.5 mg/L Mg^2+ ions, respectively.
(§3) General Assay Protocol: Stock bacterial cultures were streaked onto BHI agar plates and grown overnight at 37° C. Fresh aliquots of broth were inoculated with single bacterial colonies and the cultures were grown overnight at 37° C. with shaking (240 rpm) in cation adjusted BHI media. The following morning, the overnight cultures were sub-cultured (1:5 dilution) into fresh aliquots of cation adjusted BHI media and grown at 37° C. for 1-2 hours with shaking. After 2 h, cultures were diluted into fresh media to achieve final OD600 readings of 0.017. Aliquots of these diluted cultures (30 μL) were added to clear, flat-bottom, 384-well polystyrene plates that were stamped with 0.5 μL of test compounds in 20 μL media. […] Plates were sealed with “Breathe Easy” oxygen permeable membranes (Diversified Biotech) and left to incubate at 37° C. without shaking (stagnant assay). OD600 nm readings were taken at either 6-8 h (S. aureus, MRSA, K. pneumonia, E. cloacae, and P. aeruginosa) or 24 h (E. faecium and A. baumannii). A second set of baseline control plates were prepared analogously, but without any bacteria added, to correct for possible compound absorbance and/or precipitation. Plates were then read at 600 nm using a Molecular Devices SpectraMax Plus384 microplate reader. […] Results presented represent the averages of EC50 values obtained from at quadriplicate (duplicate of duplicate) replicates.

[2] = system: Acinetobacter baumannii (ATCC 19606); experiment: Bacterial proliferation assay, A. baumannii; type: cell-based
From the text: as §1, §2, §3

[3] = target: T1, native MDH (Sus scrofa, UniProt P00346); experiment: Counter-screen for inhibition of native MDH enzymatic activity; type: biochemical, pig
T1 construct: soluble pig heart MDH from Roche, product #10127248001; purchased Roche 10127248001; host or cells: pig heart
T1 sequence (P00346 25-338): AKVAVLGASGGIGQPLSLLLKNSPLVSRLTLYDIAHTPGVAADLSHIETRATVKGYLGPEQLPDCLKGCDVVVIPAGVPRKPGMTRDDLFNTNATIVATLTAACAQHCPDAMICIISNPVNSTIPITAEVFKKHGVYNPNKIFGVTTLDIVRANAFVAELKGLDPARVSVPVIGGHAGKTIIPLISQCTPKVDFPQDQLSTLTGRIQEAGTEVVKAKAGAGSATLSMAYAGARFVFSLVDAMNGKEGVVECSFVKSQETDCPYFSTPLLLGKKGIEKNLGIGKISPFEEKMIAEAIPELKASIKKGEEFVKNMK
Description: Reagent Preparations & Assay Protocol: This assay was performed as described above for the GroEL/ES-dMDH refolding assay; however, the assay protocol differed in the sequence of compound addition to the assay plates. The refolding reactions were allowed to proceed for 45 min at 37° C. in the absence of test compounds (complete refolding of MDH occurs), then quenched with the EDTA stock. Compounds were then pin-transferred into the plates after the EDTA quenching step; thus, compounds effects are only possible by inhibiting the fully-refolded MDH reporter substrate. […] A340 nm measurements were recorded at 0.5 minutes (start point) and at successive time points until the amount of NADH consumed reached ˜90% (end point, generally between 20-35 minutes). Compounds were tested in 8-point, 3-fold dilution series (62.5 μM to 29 nM during the reporter reaction) in clear, flat-bottom 384-well microtiter plates. DMSO was used as a negative control, and previously discovered native MDH inhibitors were used as positive controls. […] Results presented represent the averages of IC50 values obtained from at least quadriplicate (duplicate of duplicate) replicates.

[4] = system: Enterococcus faecium (ATCC 19434); experiment: Bacterial proliferation assay, E. faecium; type: cell-based
From the text: as §1, §2, §3

[5] = system: Methicillin resistant S. aureus (MRSA) (ATCC BAA-44); experiment: Bacterial proliferation assay, MRSA; type: cell-based, Staphylococcus aureus; details: Staphylococcus aureus
From the text: as §1, §2, §3

[6] = ATCC13883, OD600 at 6-8 h, read-out: Bacterial Proliferation EC50 K. pneumoniae
[7] = ATCC13883, log of EC50 (μM scale), with standard deviation, read-out: log(EC50) Bacterial Proliferation Assay K. pneumoniae (converted)
[8] = ATCC19606, OD600 at 24 h, read-out: Bacterial Proliferation EC50 A. baumannii
[9] = ATCC19606, log of EC50 (μM scale), with standard deviation, read-out: log(EC50) Bacterial Proliferation Assay A. baumannii (converted)
[10] = log of IC50 (μM scale), with standard deviation, read-out: log(IC50) Native MDH Reporter (converted)
[11] = ATCC19434, OD600 at 24 h, read-out: Bacterial Proliferation EC50 E. faecium
[12] = ATCC19434, log of EC50 (μM scale), with standard deviation, read-out: log(EC50) Bacterial Proliferation Assay C. faecium (converted)
[13] = MRSA, OD600 at 6-8 h, read-out: Bacterial Proliferation EC50 S. aureus Resistant
[14] = MRSA, log of EC50 (μM scale), with standard deviation, read-out: log(EC50) Bacterial Proliferation Assay S. aureus Resistant (converted)
[15] = ATCC13883, read-out: Bacterial Proliferation EC50 K. pneumoniae
[16] = ATCC13883, read-out: log(EC50) Bacterial Proliferation Assay K. pneumoniae (converted)
[17] = ATCC19606, 24 h, read-out: Bacterial Proliferation EC50 A. baumannii
[18] = ATCC19606, read-out: log(EC50) Bacterial Proliferation Assay A. baumannii (converted)
[19] = read-out: Biochemical Assay IC50 Native MDH Reporter
[20] = ATCC19434, 24 h, read-out: Bacterial Proliferation EC50 E. faecium
[21] = ATCC19434, read-out: log(EC50) Bacterial Proliferation Assay C. faecium (converted)
[22] = read-out: Bacterial Proliferation EC50 S. aureus Resistant
[23] = read-out: log(EC50) Bacterial Proliferation Assay S. aureus Resistant (converted)

SMILES | EC50 [1, 6] [µM] | EC50 [1, 7] [µM] | EC50 [2, 8] [µM] | EC50 [2, 9] [µM] | IC50 [3, 10] [µM] | EC50 [4, 11] [µM] | EC50 [4, 12] [µM] | EC50 [5, 13] [µM] | EC50 [5, 14] [µM] | EC50 [1, 15] [µM] | EC50 [1, 16] [µM] | EC50 [2, 17] [µM] | EC50 [2, 18] [µM] | IC50 [3, 19] [µM] | EC50 [4, 20] [µM] | EC50 [4, 21] [µM] | EC50 [5, 22] [µM] | EC50 [5, 23] [µM] | IC50 ([3]; Biochemical Assay IC50 Native MDH Reporter) [µM] | IC50 ([3]; log(IC50) Native MDH Reporter, log of IC50 (μM scale), with standard deviation) [µM]
O=C(Nc1cccc(Cl)c1)c1cccc(Br)c1O [Compound 10, 3-Bromo-N-(3-chlorophenyl)-2-hydroxybenzamide] | > 100 | > 100 | > 100 | > 100 | > 63.1 | > 100 | > 100 | 2 | 2 | – | – | – | – | – | – | – | – | – | – | –
O=C(Nc1cccc(Cl)c1)c1cc(Br)ccc1O [Compound 11, 5-Bromo-N-(3-chlorophenyl)-2-hydroxybenzamide] | – | – | – | – | > 63.1 | – | – | – | – | > 100 | > 100 | > 100 | > 100 | > 63 | > 100 | > 100 | 0.53 | 0.537 | – | –
O=C(Nc1cccc(Cl)c1)c1ccccc1O [Compound 12, N-(3-Chlorophenyl)-2-hydroxybenzamide] | > 100 | > 100 | > 100 | > 100 | > 63.1 | > 100 | > 100 | 4.2 | 4.17 | – | – | – | – | > 63 | – | – | – | – | – | –
O=C(Nc1ccccc1)c1cc(Br)cc(Br)c1O [Compound 13, 3,5-Dibromo-2-hydroxy-N-phenylbenzamide] | – | – | – | – | 50.1 | – | – | – | – | > 100 | > 100 | > 100 | > 100 | 51 | > 100 | > 100 | 2 | 2 | – | –
O=C(Nc1ccccc1)c1cccc(Br)c1O [Compound 14, 3-Bromo-2-hydroxy-N-phenylbenzamide] | > 100 | > 100 | > 100 | > 100 | > 63.1 | > 100 | > 100 | 10 | 10 ± 1.7 | – | – | – | – | > 63 | – | – | – | – | – | –
O=C(Nc1ccccc1)c1cc(Br)ccc1O [Compound 15, 5-Bromo-2-hydroxy-N-phenylbenzamide] | 78 | 77.6 | > 100 | > 100 | > 63.1 | > 100 | > 100 | 4.1 | 4.07 | – | – | – | – | > 63 | – | – | – | – | – | –
O=C(Nc1ccccc1)c1ccccc1O [Compound 16, 2-Hydroxy-N-phenylbenzamide] | – | – | – | – | – | – | – | – | – | > 100 | > 100 | > 100 | > 100 | – | > 100 | > 100 | 51 | 51.3 | > 63 | > 63.1
O=C(Nc1ccc(Sc2nc3ccccc3s2)c(Cl)c1)c1cc(Br)cc(Br)c1 [Compound 17, N-(4-(Benzo[d]thiazol-2-ylthio)-3-chlorophenyl)-3,5-dibromobenzamide] | > 100 | > 100 | > 100 | > 100 | > 63.1 | > 100 | > 100 | – | > 100 | – | – | – | – | > 63 | – | – | – | – | – | –
O=C(Nc1ccc(Sc2nc3ccccc3s2)c(Cl)c1)c1cccc(Br)c1 [Compound 18, N-(4-(Benzo[d]thiazol-2-ylthio)-3-chlorophenyl)-3-bromobenzamide] | > 100 | > 100 | > 100 | > 100 | > 63.1 | > 100 | > 100 | – | > 100 | – | – | – | – | > 63 | – | – | – | – | – | –
O=C(Nc1ccc(Sc2nc3ccccc3s2)c(Cl)c1)c1ccccc1 [Compound 19, N-(4-(Benzo[d]thiazol-2-ylthio)-3-chlorophenyl)benzamide] | > 100 | > 100 | > 100 | > 100 | > 63.1 | > 100 | > 100 | > 100 | > 100 | – | – | – | – | > 63 | – | – | – | – | – | –
O=C(Nc1ccc(Sc2nc3ccccc3s2)cc1)c1cc(Br)cc(Br)c1 [Compound 20, N-(4-(Benzo[d]thiazol-2-ylthio)phenyl)-3,5-dibromobenzamide] | > 100 | > 100 | > 100 | > 100 | > 63.1 | > 100 | > 100 | – | > 100 | – | – | – | – | > 63 | – | – | – | – | – | –
O=C(Nc1ccc(Sc2nc3ccccc3s2)cc1)c1cccc(Br)c1 [Compound 21, N-(4-(Benzo[d]thiazol-2-ylthio)phenyl)-3-bromobenzamide] | > 100 | > 100 | > 100 | > 100 | > 63.1 | > 100 | > 100 | – | > 100 | – | – | – | – | > 63 | – | – | – | – | – | –
O=C(Nc1ccc(Sc2nc3ccccc3s2)cc1)c1ccccc1 [Compound 22, N-(4-(Benzo[d]thiazol-2-ylthio)phenyl)benzamide] | > 100 | > 100 | > 100 | > 100 | > 63.1 | > 100 | > 100 | – | > 100 | – | – | – | – | > 63 | – | – | – | – | – | –

Reference: patent US20210395210A1, “INHIBITION OF BACTERIAL CHAPERONIN SYSTEMS” (THE TRUSTEES OF INDIANA UNIVERSITY, priority 2018, published 2021)
